Laboratory results taken from PMC2854128, “A Target-Based High Throughput Screen Yields Trypanosoma brucei Hexokinase Small Molecule Inhibitors with Antiparasitic Activity” (PLoS Neglected Tropical Diseases, 2010).
“And” between values parts separate entries of the source, which are not always exact repeats. Equal values may be shown once. Read-outs that look alike come from different tables or passages of the source.

Tests used:
[1] = system: BSF T. brucei parasites (cell line 90-13, a 427 strain); assay: T. brucei BSF viability assay (CellTiter Blue); format: cell-based, Trypanosoma brucei; settings: for EC50: Trypanosoma brucei; for Toxicity to BSF at 10 µM: cell density after 72 hr
Protocol: CellTiter Blue (Promega, Madison WI) was added (20 µl) and the plates incubated an additional 3 hr under standard culture conditions.

TbHK1 [2] = molecular target: T1, TbHK1 (Trypanosoma brucei brucei, UniProt Q38C42); assay: Kinetic analysis of TbHK1 inhibition with respect to ATP (Lineweaver-Burk); format: biochemical
Protocol: (§1) Parasite lysates from BSF parasites were prepared by incubation (5 min on ice) of 1.5×10^7 cells in lysis buffer (0.1 M TEA, pH 7.4, and 0.1% Triton X-100) supplemented with 1 mM PMSF, 5 µg/ml leupeptin, and 100 µg/ml TLCK. In triplicate, cell equivalents (2×10^5) were incubated with increasing concentrations of inhibitor for 15 minutes at RT prior to initiation of the coupled reaction. In short, the 200 µl reactions included 50 mM TEA, pH 7.4, 33 mM MgCl2, 20 mM glucose, 5.25 mM ATP, 0.75 mM NADP, and 0.1 units of G6PDH, with kinetic analyses performed using KaleidaGraph 4.1 (Synergy Software, Reading, PA).
Assays were performed as described for cell lystates (see Materials and Methods) with ATP concentrations varied.

[3] = system: PF T. brucei parasites (29-13, a 427 strain); assay: Procyclic form (PF) parasite growth assay; format: cell-based; settings: Trypanosoma brucei, A-427, 48 h, read-out: % PF Growth Inhibition (10 µM)
Protocol: Plates were then incubated for 1 hr under standard culture conditions. Fluorescence of samples was then characterized as above.

Leishmania promastigotes = assay: Leishmania promastigote specificity assay; format: cell-based, L. major; settings: 44 h
Protocol: Cell-based specificity assays were performed as previously described. Briefly, mammalian cell line and Leishmania promastigote assays were performed in final volumes of 25 µL using our previously described 384-well microtiter format. All mammalian cell lines were cultured and maintained in complete growth medium preparations according to ATCC specifications (ATCC, Manassas, VA). Leishmania promastigotes were cultured as previously described. […] Vehicle and positive controls were 1% and 10% DMSO, respectively. For mammalian cells, assay plates were incubated for 44–46 h at 37°C in the presence of 5% CO2 and for the Leishmania promastigotes, assay plates were incubated for 44 h at 28°C with 5% CO2. Five µL of CellTiter Blue reagent was added to each assay plate well and incubated for 2–4 h at 37°C with 5% CO2. Data were captured on a Molecular Devices SpectraMax M5 (excitation A560; emission A590).

[4] = molecular target: T. brucei lysate-derived TbHK1 (Trypanosoma brucei brucei, UniProt Q38C42); assay: Inhibition assay of lysate-derived TbHK; format: biochemical; settings: read-out: IC50 against T. brucei lysate-derived TbHK1 enzymatic activity; 2×10^5 BSF cell equivalents, 15 min preincubation at RT
Protocol: as §1

[5] = cited from earlier work
TbHK1 [6] = molecular target: T1, TbHK1; assay: TbHK1 coupled enzyme HTS assay (G6PDH coupled, bacterially expressed rTbHK1); format: biochemical; settings: for Fold less potent upon resupply (TbHK1 IC50 versus cherry-picked compound): resupplied versus cherry-picked compound
Protocol: For purification of bacterially expressed TbHK1 (rTbHK1), a previously described protocol was modified to increase yield. Briefly, a starter culture of E. coli M15(pREP) harboring pQE30 (Qiagen, Valencia, CA) with the TbHK1 gene cloned in frame of a 6-His tagging sequence was grown in ECPM1 [9] and then inoculated into a 5 L bioreactor (Biostat B, B. Braun Biotech International, Allentown, PA) and grown at 37°C. At OD600 between 3–5, the culture was induced with IPTG (0.8 mM), grown without supplement O2 (37°C, 16 hr), and cells collected by centrifugation (5000×g, 20 min, 4°C). The pellet was resuspended in lysis buffer (50 mM NaPO4, pH 8.1, 5 mM glucose, 150 mM NaCl, and 0.1% Tween) and lysed by using a cell disruptor (Constant Cell Disruption Systems, Sanford, NC). The resulting supernatant was applied (5 ml/min) to a 50 ml ProBind column (Invitrogen, Eugene, OR) on a FPLC (GE Lifesciences, Piscataway, NJ) and protein eluted by gradient (5 to 250 mM imidazole) in lysis buffer. Fractions were screened using HK activity assays and Western blotting and those containing rTbHK1 were pooled, concentrated, and applied to a HiTrap SP HP column (GE Lifesciences, Piscataway, NJ).
TbHK1 assays were an adaptation of a coupled enzyme HK assay to a 384-well format, [10]. Briefly, test and control compounds (30 µM in 15 µL volume) were added to a 384 well black, opaque microtiter plate using a Velocity 11 V-prep (Santa Clara, CA) for a final test compound concentration of 10 µM. […] The 45 µL reaction mixture was incubated at RT for 2 hr and then quenched with 5 µL EDTA (500 mM). The resulting signal, which remained stable for up to 5 hr after addition of stop reagent, was collected on a Molecular Devices SpectraMax M5 (absorbance at OD340)(Sunnyvale, CA).

[7] = molecular target: T2, human HK 4 (human glucokinase, hGlk) (Homo sapiens, UniProt P35557); assay: Specificity assay against human HK 4 (human glucokinase, hGlk); format: biochemical; settings: for inhibition at 10 µM: read-out: % Inhibition of hGlck (10 µM)
T2 construct: His tag (from pQE30); made in house; host or cells: E. coli M15 (pREP)
T2 sequence (P35557 1-465): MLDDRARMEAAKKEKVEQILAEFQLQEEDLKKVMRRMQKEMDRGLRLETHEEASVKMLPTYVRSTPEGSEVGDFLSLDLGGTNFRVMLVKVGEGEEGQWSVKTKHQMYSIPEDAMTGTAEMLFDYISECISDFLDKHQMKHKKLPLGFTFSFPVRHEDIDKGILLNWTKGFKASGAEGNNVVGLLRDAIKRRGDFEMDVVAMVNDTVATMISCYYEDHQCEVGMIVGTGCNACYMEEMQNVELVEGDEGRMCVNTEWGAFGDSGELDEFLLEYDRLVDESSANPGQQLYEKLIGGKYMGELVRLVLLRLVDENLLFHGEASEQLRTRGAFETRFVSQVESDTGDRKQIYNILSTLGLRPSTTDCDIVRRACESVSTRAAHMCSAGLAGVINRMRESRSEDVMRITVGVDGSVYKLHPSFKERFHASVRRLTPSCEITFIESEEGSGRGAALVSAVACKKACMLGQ
Protocol: Additional specificity assays were performed using human HK 4 (human glucokinase, hGlk, GenBank accession no. BC001890) that was expressed from a cloned cDNA (OPEN Biosystems, Huntsville, AL) in pQE30.

[8] = system: cellular G6P levels in BSF parasites; assay: Cellular G6P levels in BSF parasites grown with compound; format: cell-based, Trypanosoma brucei
TbHK1 [9] = molecular target: T1, TbHK1; design: method as in Lyda and Morris, unpublished; settings: previously identified inhibitor; ref Lyda and Morris, unpublished; cited from earlier work
[10] = A-427, bloodstream form parasites, 3 days (72 hr), read-out: BSF EC50
[11] = procyclic form parasites, 10 µM, 2 days
[12] = promastigotes, read-out: L. major EC50
[13] = resupplied compound, bacterially expressed TbHK1, read-out: IC50 (µM) Resupply
[14] = A-427, 72 h, read-out: BSF EC50 (µM)

T1 sequence (Q38C42 entry or part of it): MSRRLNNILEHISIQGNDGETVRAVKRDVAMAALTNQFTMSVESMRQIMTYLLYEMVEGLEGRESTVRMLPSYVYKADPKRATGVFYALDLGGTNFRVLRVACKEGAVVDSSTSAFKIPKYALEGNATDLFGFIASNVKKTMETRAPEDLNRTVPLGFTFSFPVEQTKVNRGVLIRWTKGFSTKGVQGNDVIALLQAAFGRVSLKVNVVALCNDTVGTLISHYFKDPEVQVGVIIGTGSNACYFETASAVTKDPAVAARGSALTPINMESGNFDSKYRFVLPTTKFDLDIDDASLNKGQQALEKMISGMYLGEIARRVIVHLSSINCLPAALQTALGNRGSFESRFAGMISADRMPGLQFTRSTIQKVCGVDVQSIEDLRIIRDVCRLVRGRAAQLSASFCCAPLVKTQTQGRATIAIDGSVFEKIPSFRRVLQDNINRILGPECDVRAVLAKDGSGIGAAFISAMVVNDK
Sequence of T. brucei lysate-derived TbHK1 (Q38C42 entry or part of it): as above

| SMILES | EC50 [1, 10] [µM] | inhibition at 10 µM [3, 11] [%] | EC50 (Leishmania promastigotes; [12]) [µM] | IC50 (TbHK1 [6]; [13]) [µM] | inhibition at 10 µM ([7]; 10 µM compound) [%] | Toxicity to BSF at 10 µM [1] | further results |
| --- | --- | --- | --- | --- | --- | --- | --- |
| O=c1c2ccccc2[se]n1-c1ccccc1 [Ebselen, 2-phenyl-1,2-benzisoselenazol-3(2H)-one, reference compound] | 2.9 ± 0.28 | 51 ± 0.16 | 4.1 ± 0.4 | 0.05 ± 0.03 | 97.8 ± 0.1 | – | Ki (TbHK1 [2]): 6.13 µM; Nature of TbHK1 inhibition (TbHK1 [2]; with respect to ATP): mixed inhibitors; IC50 [4]: 0.43 ± 0.02 µM; Brain levels as percent of plasma levels [5]: 21%; Serum values ([5]; single oral dose (100 mg/kg)): 4 to 5 µM; Reduction in cellular G6P ([8]; 1 hour, 10 times the EC50 (30 µM ebselen, 1 µM SID 17387000), versus untreated parasites): 56%; Reduction in cellular G6P ([8]; 4 hours, 10 times the EC50 (30 µM ebselen, 1 µM SID 17387000), versus untreated parasites): 70% |
| CCOC(=O)Cc1csc(-n2sc3ccccc3c2=O)n1 [SID 3716597] | > 10 | 27 ± 0.08 | > 12.5 | 9.3 ± 0.3 | 7.8 ± 7.1 | not toxic | – |
| CCCCCCCCCCCNC(=O)c1ccoc1C [SID 14728414] | > 10 | 0 | > 12.5 | 41.7 ± 3 | 1.9 ± 7 | not toxic | Fold less potent upon resupply (TbHK1 IC50 versus cherry-picked compound) (TbHK1 [6]): 6.6 fold; % Inhibition of hGlck (10 µM) ([7]; 10 µM compound): minimal impact on the enzyme |
| O=C(Cn1sc2ccccc2c1=O)NC12CC3CC(CC(C3)C1)C2 [SID 16952891] | 0.3 ± 0.079 | 47 ± 0.15 | > 12.5 | 2.6 ± 0.2 | 44.9 ± 9.9 | – | – |
| COC1=C/C(=C/C(C#N)=C2/NC3=C(CCCC3)S2)C=CC1=O [SID 17386310] | 0.038 ± 0.0038 | 50 ± 0.15 | 2.6 ± 0.1 | 33.6 ± 10.2 | 70.3 ± 3.6 | – | Fold less potent upon resupply (TbHK1 IC50 versus cherry-picked compound) (TbHK1 [6]): 7.5 fold; % Inhibition of hGlck (10 µM) ([7]; 10 µM compound): more potent inhibitor |
| O=c1c2ccccc2sn1-c1ccccc1 [SID 17387000, 2-phenyl-1,2-benzisothiazol-3(2H)-one] | – | – | – | – | – | – | EC50 [1, 14]: 0.03 ± 0.067 µM; inhibition at 10 µM [3]: 48 ± 0.15%; EC50 (Leishmania promastigotes; read-out: L. major EC50 (µM)): 1.9 ± 0.2 µM; inhibition at 10 µM [7]: 6.7 ± 9.4%; Reduction in cellular G6P [8]: 29% and 18% |
| C/C(=C/CCC(C)[C@H]1CC[C@@]2(C)C3=C(CC[C@]12C)[C@@]1(C)CCC(=O)C(C)(C)[C@@H]1CC3)C(=O)O (some centres unmarked) [SID 22401406] | > 10 | 0 | > 12.5 | – | 0 | not toxic | IC50 (TbHK1 [6]): 2.3 ± 0.3 µM; % Inhibition of hGlck (10 µM) ([7]; 10 µM compound): minimal impact on the enzyme |
| Cc1ccccc1-n1sc2cc(F)ccc2c1=O [SID 24785302] | 0.042 ± 0.0028 | 47 ± 0.15 | 1.9 ± 0.2 | 4.2 ± 1 | 6.9 ± 4.2 | – | – |
| COc1ccc(C(=O)Nc2cc(Cl)ccc2C(=O)O)cc1 [SID 24797131] | > 10 | 0 | > 12.5 | 11.4 ± 3.2 | 6.3 ± 8.8 | not toxic | – |
| O=c1c2ccccc2sn1-c1nccs1 [SID 24830882] | – | – | – | – | 88.8 ± 4.9 | – | EC50 [1, 14]: 0.83 ± 0.2 µM; inhibition at 10 µM [3]: 8.6 ± 0.03%; EC50 (Leishmania promastigotes; read-out: L. major EC50 (µM)): > 12.5 µM; IC50 (TbHK1 [6]): 16.9 ± 0.1 µM |
| O=c1c(O)c(-c2cc(O)c(O)c(O)c2)oc2cc(O)cc(O)c12 [myricetin, reference compound] | – | – | – | – | – | – | inhibition at 10 µM (TbHK1 [6]; 10 µM, LOPAC validation screen, duplicate, read-out: Inhibition of TbHK1 enzymatic activity at 10 µM (LOPAC screen)): ≥ 40% |
| O=c1c(O)c(-c2ccc(O)c(O)c2)oc2cc(O)cc(O)c12 [quercetin] | – | – | – | – | – | – | IC50 (TbHK1 [9]): ~85 µM |
